# From US7138122B2, “Therapeutic systems” (Enzacta R & D Limited, priority 1997, dated 2006)
# Experiments:
# [1] = test system: human T98G gliobastoma cells; test: Cytotoxicity of CB 1954 on T98G glioblastoma cells with NQO2 co-substrates; conditions: no co-substrate
# Procedure: Cells in exponential phase of growth were trypsinised, seeded in 96 well plates at a density of 5×10^4 cells per well (100 μl) and permitted to recover for 24 hours. Then 50 μl of medium was removed and replaced with 50 μl of fresh medium containing 200 μM NRH to give a final concentration of 100 μM. Serial dilutions of CB 1954 (8 of 3.66×) were performed in situ giving final concentrations of 1000–0.46 μM. Cells were then incubated with drug for 72 hours at 37° C. The plates were fixed and stained with sulforhodamine-B; the absorption at 590 nm read and results were expressed as percentage of control growth. The IC50 values were evaluated by interpolation.
# The cells were treated as for V79 cells but were treated for 144 hr in presence of CB 1954.
# E. coli nitroreductase = E. coli nitroreductase (Escherichia coli, UniProt P38489); conditions: with respect to CB 1954; NADH as co-substrate; cited from earlier work
# Human DT-diaphorase = Human DT-diaphorase (Homo sapiens, UniProt P15559); conditions: with respect to CB 1954; NADH as co-substrate; cited from earlier work
# Rat DT-diaphorase = target: T1, Rat DT-diaphorase (Rattus norvegicus, UniProt P05982); conditions: with respect to CB 1954; NADH as co-substrate; cited from earlier work
# T1 sequence (P05982 2-274 limits assumed): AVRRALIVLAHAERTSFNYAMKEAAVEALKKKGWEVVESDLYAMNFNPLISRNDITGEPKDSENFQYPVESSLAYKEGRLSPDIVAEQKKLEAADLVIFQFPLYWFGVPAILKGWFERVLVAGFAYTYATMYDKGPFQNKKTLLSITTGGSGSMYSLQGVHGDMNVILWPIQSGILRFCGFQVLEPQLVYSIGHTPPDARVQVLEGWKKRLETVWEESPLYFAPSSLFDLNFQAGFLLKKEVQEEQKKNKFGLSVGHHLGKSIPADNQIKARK
# [2] = test system: non-transfected V79 cells; test: Cytotoxicity of CB 1954 with NRH in non-transfected V79 cells; type: cell-based, Chinese hamster; conditions: 100 μM NRH added, 72 hours
# [3] = test system: NQO2 expressing V79 cells; test: Cytotoxicity of CB 1954 with NRH in NQO2-transfected V79 cells; type: cell-based, Chinese hamster; conditions: 100 μM NRH added, 72 hours
# Procedure: Transfection quality H6 DNA was prepared using the QIAGEN endotoxin-free maxiprep kit. Chinese hamster lung embryo fibroblasts (V79) were transfected with the purified H6 using DOTAP liposomal reagent according to the manufacturer's instructions (Boehringer Mannheim). Two days after transfection puromycin-resistant clones were selected in DMEM/10% FCS containing 10 μg/ml puromycin (Sigma) and grown on to establish cell lines designated V79TM1, 5, 3, 7, 9, 11 and 13 respectively and maintained in selective medium.
# NQO2 = target: T2, NQO2 (Homo sapiens, UniProt P16083); test: Co-substrate activity with NQO2 for reduction of CB 1954 (HPLC); type: biochemical; design: restriction site were added to the 5′ and 3′-ends of the full-length NQO2 cDNA; made in house; host or cells: E. coli (expression vector pKK233-2, plasmid pKK-hNQO2)
# T2 sequence (P16083 1-231): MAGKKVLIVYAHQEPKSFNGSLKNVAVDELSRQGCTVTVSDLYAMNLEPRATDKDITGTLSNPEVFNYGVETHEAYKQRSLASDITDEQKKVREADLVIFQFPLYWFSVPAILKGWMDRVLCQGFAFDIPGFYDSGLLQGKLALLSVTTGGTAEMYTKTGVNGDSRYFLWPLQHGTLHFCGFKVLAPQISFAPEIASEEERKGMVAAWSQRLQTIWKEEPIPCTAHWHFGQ
# Procedure: The effect of various co-substrates on CB 1954 was determined as above but NADH. NADPH or NMNH was substituted for the NRH and CB 1954 was used at a fixed concentration of 100 μM. The enzyme concentration was 5 μg/ml. The reduction of CB 1954 was monitored by measuring both the decrease in its corresponding peak area on the HPLC trace and the increase in the area of the peak corresponding to the reduction product 5-(aziridin-1-yl)-4-hydroxylamino-2-nitrobenzamide. The relative rates of reduction were determined at 10% reduction of CB1954 from a graph plotting CB 1954 reduction against time. The time axis was normalised to the equivalent of 10 μg/ml of NQO2.
# The activity of various potential co-substrates was determined by HPLC analysis in the presence of CB1954 and NQO2. To determine the kinetic parameters NQO2 (1 μg/ml) was incubated with NRH (5000 μM) and CB1954 at different concentrations (0.1 to 2 mM) in sodium phosphate buffer (10MM, pH 7) at 37° C. At various times, aliquots (10 μl) were injected onto a Partisphere SCX (250×4.5 mm) HPLC column (Whatman Ltd) and eluted isocratically (1.5 ml/min) with 50 mM aqueous sodium phosphate containing 1% methanol. The eluate was continuously monitored for absorption at 320 nm. […] The reduction of CB1954 was monitored by quantifying the increase in the area of the peak corresponding to the reduction product 5-(aziridin-1-yl)-4-hydroxylamino-2-nitrobenzamide. All the assays were initiated by addition of the enzyme and performed in duplicate. The kinetic parameters were calculated by plotting the initial rate of reduction at each concentration of CB1954 against that concentration and fitting the data to the Michaelis-Menton equation using a computer programme (Fig P). Values were confirmed by transforming the data and fitting it to various linear forms of the equation by regression analysis.
# The effect of various co-substrates on CB1954 reduction was determined as above but the co-substrate was substituted for the NRH and C1954 was used at a fixed concentration of 100 μM. The enzyme concentration was 1 or 5 μg/ml. The reduction of CB1954 was monitored by measuring both the decrease in its corresponding peak area on the HPLC trace and the increase in the area of the peak corresponding to the reduction product 5-(aziridin-1-yl)-4-hydroxylamino-2-nitrobenzamide. The relative rates of reduction were determined at 10% reduction of CB1954 from a graph plotting CB1954 reduction against time. The time axis was normalised to the equivalent of 10 μg/ml of NQO2. The kinetic parameters of NQO2 for the various co-substrates was determined as for CB1954 except that the initial concentration of CB1954 was constant at 100 μm whilst that of the co-substrate was varied from 0 to 2 mM. The enzyme concentration was 0.5 μg/ml.
# Sequence of Human DT-diaphorase (P15559 whole entry): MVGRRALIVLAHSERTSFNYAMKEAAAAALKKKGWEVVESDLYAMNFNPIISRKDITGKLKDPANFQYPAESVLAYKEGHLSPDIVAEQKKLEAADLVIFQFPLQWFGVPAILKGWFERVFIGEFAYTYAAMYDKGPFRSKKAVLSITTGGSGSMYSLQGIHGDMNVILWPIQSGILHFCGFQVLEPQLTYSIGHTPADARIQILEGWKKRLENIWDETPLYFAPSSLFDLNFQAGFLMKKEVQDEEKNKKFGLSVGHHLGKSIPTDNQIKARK
# Sequence of E. coli nitroreductase (P38489 whole entry): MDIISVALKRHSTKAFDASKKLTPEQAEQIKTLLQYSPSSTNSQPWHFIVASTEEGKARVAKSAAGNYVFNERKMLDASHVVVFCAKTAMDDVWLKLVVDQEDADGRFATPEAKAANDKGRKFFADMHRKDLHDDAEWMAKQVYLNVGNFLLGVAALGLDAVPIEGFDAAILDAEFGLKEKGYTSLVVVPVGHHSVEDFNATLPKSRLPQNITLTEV
compound,measurement,setting,value
"NC(=O)c1cc(N2CC2)c([N+](=O)[O-])cc1[N+](=O)[O-] [CB 1954, 5-(aziridin-1-yl)-2,4-dinitrobenzamide]",toxicity of CB1954 alone,[1],not toxic
same,kcat,E. coli nitroreductase,6.0 s⁻¹
same,Km,Human DT-diaphorase,1400 µM
same,kcat,Human DT-diaphorase,0.0107 s⁻¹
same,Km,Rat DT-diaphorase,826 µM
same,kcat,Rat DT-diaphorase,0.0683 s⁻¹
"NC(=O)C1=CN([C@@H]2O[C@H](CO)[C@@H](O)[C@H]2O)C=CC1 [NRH, dihydronicotinamide riboside]",increase of the cytotoxicity of CB 1954,[2],< 3 fold
same,increase of the cytotoxicity of CB 1954,[3]; V79TM5 and 13 cell lines,greater than 100 fold
same,increase of the cytotoxicity of CB 1954,[3]; V79TM13 cells,at least 100 fold
same,RELATIVE RATE OF REDUCTION,"NQO2; CB 1954 reduction by NQO2, co-substrate initial 500 μM, CB 1954 initial 100 μM",70.0
same,Km,"NQO2; of NQO2 for the co-substrate, CB1954 as electron acceptor (100 μM)",28 ± 2 µM
same,kcat,"NQO2; of NQO2 with the co-substrate, CB1954 as electron acceptor",6 s⁻¹
